Laboratory results: patent US11981686B2, “Urea compound having substituent” (DAIICHI SANKYO COMPANY, LIMITED, priority 2019, dated 2024)

Each compound was assayed against SIRT6 enzyme (Homo sapiens, UniProt Q8N6T7) (assay: Measurement of deacetylation activity (SIRT6, AlphaLISA, H3K9(Ac) peptide)). Conditions: SIRT6 25 ng/mL, H3K9(Ac) biotin peptide 2 nM, NAD 10 μM, room temperature 30 minutes, duplicate.
Type: biochemical
In short: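 Activation read as EC150, the concentration giving 150% activity relative to enzyme/no-enzyme DMSO controls, via variable-slope fit. Deacetylation of 2 nM biotinylated H3K9(Ac) peptide with 10 μM NAD+ by 25 ng/mL SIRT6 ran 30 min at room temperature, pH 8.0, then AlphaLISA detection of unmodified H3K9.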

Sequence of SIRT6 enzyme (Q8N6T7 whole entry, species assumed): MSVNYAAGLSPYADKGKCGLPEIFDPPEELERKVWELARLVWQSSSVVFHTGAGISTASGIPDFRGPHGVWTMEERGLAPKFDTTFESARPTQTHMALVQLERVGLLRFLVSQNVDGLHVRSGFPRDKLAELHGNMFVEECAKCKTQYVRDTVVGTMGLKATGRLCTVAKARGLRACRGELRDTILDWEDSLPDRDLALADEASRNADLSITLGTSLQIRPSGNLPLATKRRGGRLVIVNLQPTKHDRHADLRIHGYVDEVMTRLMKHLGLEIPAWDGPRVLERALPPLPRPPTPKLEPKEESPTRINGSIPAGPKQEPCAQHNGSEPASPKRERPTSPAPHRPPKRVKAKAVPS

| SMILES | EC150 (the concentration of the compound showing a relative enzyme activity of 150%) [μm] |
| --- | --- |
| C[C@H](CO)NC(=O)Nc1nc2c(s1)[C@@H]1COC[C@H](C2)N1c1nc2cc(F)cc(F)c2o1 [Example 147, N-[(4S,8S)-10-(5,7-difluoro-1,3-benzoxazol-2-yl)-4,7,8,9-tetrahydro-5H-4,8-epiminooxocino[5,4-d][1,3]thiazol-2-yl]-N′-[(2R)-1-hydroxypropan-2-yl]urea] | 3.3 |
| CNC(=O)Nc1nc2c(s1)C1CN(C(C)=O)CC(C2)N1c1ncc(-c2cccc(OC)n2)o1 (stereo not drawn) [Example 126, N-{6-acetyl-10-[5-(6-methoxypyridin-2-yl)-1,3-oxazol-2-yl]-4,5,6,7,8,9-hexahydro-4,8-epimino[1,3]thiazolo[5,4-d]azocin-2-yl}-N′-methylurea] | 1 |
| CNC(=O)Nc1nc2c(s1)C1COCC(C2)N1c1nnc(-c2cccc(C(F)(F)F)c2)o1 (stereo not drawn) [Example 110, N-methyl-N′-(10-{5-[3-(trifluoromethyl)phenyl]-1,3,4-oxadiazol-2-yl}-4,7,8,9-tetrahydro-5H-4,8-epiminooxocino[5,4-d][1,3]thiazol-2-yl)urea] | 3.7 |
| COc1ccc2oc(N3[C@@H]4COC[C@H]3c3sc(NC(=O)N[C@H]5CCOC5)nc3C4)nc2c1 [Example 151, N-[(4S,8S)-10-(5-methoxy-1,3-benzoxazol-2-yl)-4,7,8,9-tetrahydro-5H-4,8-epiminooxocino[5,4-d][1,3]thiazol-2-yl]-N′-[(3S)-oxolan-3-yl]urea] | 0.78 |
| COc1ccc2oc(N3[C@@H]4COC[C@H]3c3sc(NC(=O)N[C@H](C)CO)nc3C4)nc2c1 [Example 38, N-[(2R)-1-hydroxypropan-2-yl]-N′-[(4S,8S)-10-(5-methoxy-1,3-benzoxazol-2-yl)-4,7,8,9-tetrahydro-5H-4,8-epiminooxocino[5,4-d][1,3]thiazol-2-yl]urea] | 2 |
| CC(C)(O)CNC(=O)Nc1nc2c(s1)[C@@H]1COC[C@H](C2)N1c1nc2cc(OCF)ccc2o1 [Example 57, N-{(4S,8S)-10-[5-(fluoromethoxy)-1,3-benzoxazol-2-yl]-4,7,8,9-tetrahydro-5H-4,8-epiminooxocino[5,4-d][1,3]thiazol-2-yl}-N′-(2-hydroxy-2-methylpropyl)urea] | 0.93 |
| O=C(NCc1nnc[nH]1)Nc1nc2c(s1)CN(c1nc(C3CCC(F)(F)CC3)no1)CC2 [Example 102, N-{5-[3-(4,4-difluorocyclohexyl)-1,2,4-oxadiazol-5-yl]-4,5,6,7-tetrahydro[1,3]thiazolo[5,4-c]pyridin-2-yl}-N′-[(4H-1,2,4-triazol-3-yl)methyl]urea] | 0.33 |
| CNC(=O)Nc1nc2c(s1)CN(c1nc(-c3cccc(OC(F)(F)F)c3)no1)CC2 [Example 8, N-methyl-N′-(5-{3-[3-(trifluoromethoxy)phenyl]-1,2,4-oxadiazol-5-yl}-4,5,6,7-tetrahydro[1,3]thiazolo[5,4-c]pyridin-2-yl)urea] | 3.6 |
| O=C(Nc1nc2c(s1)C1COCC(C2)N1c1nnc(-c2cccc(OC(F)F)c2)o1)N[C@H]1CCOC1 (stereo partly drawn) [Example 115, N-(10-{5-[3-(difluoromethoxy)phenyl]-1,3,4-oxadiazol-2-yl}-4,7,8,9-tetrahydro-5H-4,8-epiminooxocino[5,4-d][1,3]thiazol-2-yl)-N′-[(3S)-oxolan-3-yl]urea] | 2 |
| CC(C)NC(=O)Nc1nc2c(s1)[C@@H]1COC[C@H](C2)N1c1nc2cc(S(C)(=O)=O)ccc2o1 [Example 50, N-{(4S,8S)-10-[5-(methanesulfonyl)-1,3-benzoxazol-2-yl]-4,7,8,9-tetrahydro-5H-4,8-epiminooxocino[5,4-d][1,3]thiazol-2-yl}-N′-propan-2-ylurea] | 1.5 |
| O=C(Nc1nc2c(s1)[C@@H]1COC[C@H](C2)N1c1ncc(-c2cccc(OC(F)F)n2)o1)N[C@@H]1COC[C@H]1O [Example 175, N-[(4S,8S)-10-{5-[6-(difluoromethoxy)pyridin-2-yl]-1,3-oxazol-2-yl}-4,7,8,9-tetrahydro-5H-4,8-epiminooxocino[5,4-d][1,3]thiazol-2-yl]-N′-[(3R,4S)-4-hydroxyoxolan-3-yl]urea] | 0.27 |
| CNC(=O)Nc1nc2c(s1)C1CN(C(C)=O)CC(C2)N1c1ncc(-c2cccc(Cl)c2)o1 (stereo not drawn) [Example 139, N-{6-acetyl-10-[5-(3-chlorophenyl)-1,3-oxazol-2-yl]-4,5,6,7,8,9-hexahydro-4,8-epimino[1,3]thiazolo[5,4-d]azocin-2-yl}-N′-methylurea] | 0.36 |
| O=C(NCC(F)(F)F)Nc1nc2c(s1)C1COCC(C2)N1c1nnc(-c2cccc(C(=O)C3CC3)c2)o1 (stereo not drawn) [Example 114] | 2.4 |
| O=C(Nc1nc2c(s1)CN(c1nc(C3CCC(F)(F)C3)no1)CC2)N[C@H]1C[C@H](O)C1 (stereo partly drawn) [Example 35, N-{5-[3-(3,3-difluorocyclopentyl)-1,2,4-oxadiazol-5-yl]-4,5,6,7-tetrahydro[1,3]thiazolo[5,4-c]pyridin-2-yl}-N′-[(1r,3r)-3-hydroxycyclobutyl]urea] | 1 |
| C[C@@H](O)CNC(=O)Nc1nc2c(s1)[C@@H]1COC[C@H](C2)N1c1ncc(-c2cccc(OC(F)F)c2)o1 [Example 171, N-[(4S,8S)-10-{5-[3-(difluoromethoxy)phenyl]-1,3-oxazol-2-yl}-4,7,8,9-tetrahydro-5H-4,8-epiminooxocino[5,4-d][1,3]thiazol-2-yl]-N′-[(2R)-2-hydroxypropyl]urea] | 0.55 |
| C[C@H](CO)NC(=O)Nc1nc2c(s1)CN(c1nc3cc(S(C)(=O)=O)ccc3o1)C(C)(C)C2 [Example 74, N-[(2R)-1-hydroxypropan-2-yl]-N′-{5-[5-(methanesulfonyl)-1,3-benzoxazol-2-yl]-6,6-dimethyl-4,5,6,7-tetrahydro[1,3]thiazolo[5,4-c]pyridin-2-yl}urea] | 0.68 |
| COc1cccc(-c2cc(N3[C@@H]4COC[C@H]3c3sc(NC(=O)N[C@H]5CCOC5)nc3C4)no2)n1 [Example 162, N-{(4S,8S)-10-[5-(6-methoxypyridin-2-yl)-1,2-oxazol-3-yl]-4,7,8,9-tetrahydro-5H-4,8-epiminooxocino[5,4-d][1,3]thiazol-2-yl}-N′-[(3S)-oxolan-3-yl]urea] | 3.3 |
| CNC(=O)Nc1nc2c(s1)C1COCC(C2)N1c1nnc(-c2cccc(OC(C)(C)C)c2)o1 (stereo not drawn) [Example 111, N-{10-[5-(3-tert-butoxyphenyl)-1,3,4-oxadiazol-2-yl]-4,7,8,9-tetrahydro-5H-4,8-epiminooxocino[5,4-d][1,3]thiazol-2-yl}-N′-methylurea] | 2.2 |
